From PMC5369539 (Chemical Science, 2016)
Bridge positions count the residues as written; N and C are the ends. Square brackets hold non-standard residues; d marks the D form. Peptide text beside a SMILES is read from it. * marks the point of attachment. X1 = CC[C@H](C)CCCCC(=O)*; Dab = NCC[C@H](N)C(=O)O

What was measured:
[1] = tested on: E. faecalis (OG1X); assay: Minimum inhibitory concentration; type: cell-based; conditions: text summary of Table S1
[2] = tested on: S. aureus (ATCC6538); assay: Minimum inhibitory concentration; type: cell-based; conditions: text summary of Table S1

Row | Compound | activity against E. faecalis (in words) [1] | activity against S. aureus (in words) [2]
1 | CC[C@H](C)CCCCC(=O)N[C@@H](CCN)C(=O)N[C@H](C(=O)N[C@@H](CCN)C(=O)N[C@H]1CCNC(=O)[C@H]([C@@H](C)O)NC(=O)[C@H](CCN)NC(=O)[C@H](CCN)NC(=O)[C@H](CC(C)C)NC(=O)[C@@H](Cc2ccccc2)NC(=O)[C@H](CCN)NC1=O)[C@@H](C)O [polymyxin B] (X1-[Dab]T[Dab][Dab][Dab][dF]L[Dab][Dab]T; lactam 4-C (inferred); N-terminus assumed) | tolerant | 
2 | CCCCCCCCCC(=O)N[C@@H](Cc1c[nH]c2ccccc12)C(=O)N[C@H](CC(N)=O)C(=O)N[C@@H](CC(=O)O)C(=O)N[C@@H]1C(=O)NCC(=O)N[C@@H](CCCN)C(=O)N[C@@H](CC(=O)O)C(=O)N[C@H](C)C(=O)N[C@@H](CC(=O)O)C(=O)NCC(=O)N[C@H](CO)C(=O)N[C@@H]([C@H](C)CC(=O)O)C(=O)N[C@@H](CC(=O)c2ccccc2N)C(=O)O[C@@H]1C [daptomycin] | tolerant | appreciable activity
